Results published in publication PMC2989642 (The European journal of neuroscience, 2010).
Values joined by “and” are separate entries in the source; they are usually repeats but may differ in a detail not shown here. Identical values can stand only once. Like-named read-outs stand apart in the source and are kept apart here.

Key:
[1] = target: α3β4α5 receptors (in the β2 KO) (Mus musculus, UniProt Q8R493+Q8R4G9); format: cell-based
[2] = target: α3β4 receptors (in the α5β2 KO) (Mus musculus, UniProt Q8R493+Q8R4G9); assay: cell-based
hα3α5β4 = conditions: probed with 300 μM ACh; ref Nelson et al., 2001; cited from earlier work
hα3β4 = conditions: ref Nelson et al., 2001, cited from earlier work
[3] = target: α3β2 receptors (in the α5β4 KO) (Mus musculus, UniProt Q8R4G9+Q9ERK7); assay: cell-based; format: cell-based
[4] = target: hetero-oligomeric nAChR binding sites in SCG membranes (Mus musculus, UniProt Q8R493+Q8R4G9)
[5] = target: nAChRs in adult (intact) mouse SCG; conditions: read-out: KD of [3H]-epibatidine binding, ref Del Signore et al., 2002; cited from earlier work
α7 nAChRs [6] = target: T1, α7 nAChRs (Mus musculus, UniProt P49582); format: cell-based
α7 nAChRs [7] = format: cell-based, mouse
α7 nAChRs [8] = target: T1, α7 nAChRs; format: cell-based; remark: listed apart in the source
α7 nAChRs [9] = format: cell-based, mouse; remark: listed apart in the source
[10] = test system: SCG neurons from α5α7β2 KO animals; format: cell-based, mouse
α7 receptors = α7 receptors (Gallus gallus, UniProt P22770); format: cell-based, chick
human α3β4 receptors = conditions: ref Chavez-Noriega et al., 1997; cited from earlier work
rα3β4 receptors = conditions: ref Wong et al., 1995; cited from earlier work

T1 sequence (P49582 23-502): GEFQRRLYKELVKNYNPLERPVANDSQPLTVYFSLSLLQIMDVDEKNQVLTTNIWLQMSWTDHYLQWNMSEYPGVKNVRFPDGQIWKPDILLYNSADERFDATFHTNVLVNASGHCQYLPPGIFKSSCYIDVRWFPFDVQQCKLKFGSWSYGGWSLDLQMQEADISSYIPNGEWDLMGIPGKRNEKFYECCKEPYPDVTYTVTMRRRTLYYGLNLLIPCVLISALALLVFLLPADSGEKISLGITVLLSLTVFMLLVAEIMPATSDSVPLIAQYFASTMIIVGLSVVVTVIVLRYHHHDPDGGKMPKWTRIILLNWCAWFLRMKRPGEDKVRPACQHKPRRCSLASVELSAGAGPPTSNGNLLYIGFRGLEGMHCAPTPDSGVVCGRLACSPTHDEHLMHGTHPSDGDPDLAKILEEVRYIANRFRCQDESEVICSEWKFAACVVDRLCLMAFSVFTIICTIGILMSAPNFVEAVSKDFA
Chain of α3β4α5 receptors (in the β2 KO) (Q8R4G9 26-499): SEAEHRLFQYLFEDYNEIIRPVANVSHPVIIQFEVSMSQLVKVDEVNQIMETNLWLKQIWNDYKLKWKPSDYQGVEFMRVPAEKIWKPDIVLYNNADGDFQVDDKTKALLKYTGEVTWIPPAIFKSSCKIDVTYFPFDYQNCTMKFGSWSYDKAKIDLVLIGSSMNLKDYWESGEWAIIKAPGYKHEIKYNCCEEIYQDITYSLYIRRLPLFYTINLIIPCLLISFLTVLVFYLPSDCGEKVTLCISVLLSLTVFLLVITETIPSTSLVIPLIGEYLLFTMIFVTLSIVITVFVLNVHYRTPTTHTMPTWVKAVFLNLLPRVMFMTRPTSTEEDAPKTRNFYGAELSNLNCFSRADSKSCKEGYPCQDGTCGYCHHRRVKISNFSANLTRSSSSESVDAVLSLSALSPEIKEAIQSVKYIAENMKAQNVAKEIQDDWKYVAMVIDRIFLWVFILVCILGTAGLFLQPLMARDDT
Chain of α3β4α5 receptors (in the β2 KO) (Q8R493 21-495): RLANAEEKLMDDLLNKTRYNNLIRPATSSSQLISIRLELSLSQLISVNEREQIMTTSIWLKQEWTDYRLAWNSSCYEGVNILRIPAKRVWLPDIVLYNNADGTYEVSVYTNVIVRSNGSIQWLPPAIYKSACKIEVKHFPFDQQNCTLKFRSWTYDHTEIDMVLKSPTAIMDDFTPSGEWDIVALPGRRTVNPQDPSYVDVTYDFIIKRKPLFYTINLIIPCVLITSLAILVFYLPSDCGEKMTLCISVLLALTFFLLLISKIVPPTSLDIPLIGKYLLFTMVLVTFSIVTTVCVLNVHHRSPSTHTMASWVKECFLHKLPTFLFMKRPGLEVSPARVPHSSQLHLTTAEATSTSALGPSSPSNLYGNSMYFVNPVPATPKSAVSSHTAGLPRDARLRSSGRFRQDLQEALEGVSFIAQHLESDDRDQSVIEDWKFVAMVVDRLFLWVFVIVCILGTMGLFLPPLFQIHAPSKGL
Chain of α3β4α5 receptors (in the β2 KO) (Q2MKA5 30-467 partner): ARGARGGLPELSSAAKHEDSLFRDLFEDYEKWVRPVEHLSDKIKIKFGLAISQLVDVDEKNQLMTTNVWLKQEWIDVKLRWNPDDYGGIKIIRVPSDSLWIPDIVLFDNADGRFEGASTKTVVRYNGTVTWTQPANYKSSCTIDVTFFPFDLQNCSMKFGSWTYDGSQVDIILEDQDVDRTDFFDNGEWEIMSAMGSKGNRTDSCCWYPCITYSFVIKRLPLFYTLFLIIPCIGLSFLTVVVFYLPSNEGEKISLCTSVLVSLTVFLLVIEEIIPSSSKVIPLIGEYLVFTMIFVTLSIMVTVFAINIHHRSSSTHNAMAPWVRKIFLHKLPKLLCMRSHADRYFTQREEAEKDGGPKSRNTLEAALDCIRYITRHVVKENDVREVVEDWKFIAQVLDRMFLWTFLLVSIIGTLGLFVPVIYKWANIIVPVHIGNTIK
Chain of α3β4 receptors (in the α5β2 KO) (Q8R4G9 26-499): as the sequence (Q8R4G9 26-499) above
Chain of α3β4 receptors (in the α5β2 KO) (Q8R493 21-495): as the sequence (Q8R493 21-495) above
Chain of α3β2 receptors (in the α5β4 KO) (Q8R4G9 26-499): as the sequence (Q8R4G9 26-499) above
Chain of α3β2 receptors (in the α5β4 KO) (Q9ERK7 26-501): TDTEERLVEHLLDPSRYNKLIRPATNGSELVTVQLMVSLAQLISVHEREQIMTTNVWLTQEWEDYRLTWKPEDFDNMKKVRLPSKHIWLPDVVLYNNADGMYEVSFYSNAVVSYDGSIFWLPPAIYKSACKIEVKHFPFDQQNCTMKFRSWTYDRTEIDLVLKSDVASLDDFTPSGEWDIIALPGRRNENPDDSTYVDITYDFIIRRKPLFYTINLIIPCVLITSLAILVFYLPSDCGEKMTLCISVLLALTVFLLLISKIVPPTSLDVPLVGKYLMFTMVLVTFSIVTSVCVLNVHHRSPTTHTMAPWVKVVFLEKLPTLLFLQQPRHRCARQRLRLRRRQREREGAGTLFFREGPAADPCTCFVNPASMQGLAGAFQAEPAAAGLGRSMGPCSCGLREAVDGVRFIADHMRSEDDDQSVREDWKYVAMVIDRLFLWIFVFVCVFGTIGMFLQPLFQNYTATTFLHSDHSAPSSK
Chain of hetero-oligomeric nAChR binding sites in SCG membranes (Q8R4G9 26-499): as the sequence (Q8R4G9 26-499) above
Chain of hetero-oligomeric nAChR binding sites in SCG membranes (Q8R493 21-495): as the sequence (Q8R493 21-495) above
Chain of hetero-oligomeric nAChR binding sites in SCG membranes (Q2MKA5 30-467 partner): as the sequence (Q2MKA5 30-467 partner) above
Chain of hetero-oligomeric nAChR binding sites in SCG membranes (Q9ERK7 26-501 partner): as the sequence (Q9ERK7 26-501) above
Chain of α7 receptors (P22770 23-502 limits assumed): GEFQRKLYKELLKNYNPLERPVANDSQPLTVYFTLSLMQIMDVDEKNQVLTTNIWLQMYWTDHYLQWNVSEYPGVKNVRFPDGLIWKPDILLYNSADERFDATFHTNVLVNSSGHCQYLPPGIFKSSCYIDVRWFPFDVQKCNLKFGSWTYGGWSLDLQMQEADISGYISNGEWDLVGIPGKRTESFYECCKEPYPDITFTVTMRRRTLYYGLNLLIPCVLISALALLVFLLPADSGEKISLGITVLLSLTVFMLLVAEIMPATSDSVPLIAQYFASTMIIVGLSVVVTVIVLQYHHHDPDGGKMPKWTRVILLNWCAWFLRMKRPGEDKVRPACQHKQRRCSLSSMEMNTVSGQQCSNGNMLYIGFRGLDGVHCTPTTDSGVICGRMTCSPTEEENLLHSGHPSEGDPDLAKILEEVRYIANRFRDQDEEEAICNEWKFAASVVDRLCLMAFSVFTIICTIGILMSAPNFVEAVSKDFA

With `CC(=O)OCC[N+](C)(C)C` [ACh, acetylcholine] the “Af (fast amplitude, share of current)” value [1] was 16.8 ± 1.1 % ^1, the “Af + As + C (total amplitude)” value [1] was 3907 ± 230 pA ^6 and the “Af, fast” value [1] was −809 pA. The “As (slow amplitude, share of current)” value [1] was 48.6 ± 2.6 % ^3, the “As, slow” value [1] was −2899 pA and the “C (plateau, share of current)” value [1] was 34.5 ± 2.8 % ^5. The “Tf (fast decay time constant)” value [1] was 449 ± 30 (msec) ^2, the “Tf, fast” value [1] was 0.47 s and the “Ts (slow decay time constant)” value [1] was 5592 ± 509 (msec) ^4. For the same molecule, the “Ts, slow” value [1] was 6.98 s, the plateau [1] was −943 pA and the “Af (fast amplitude, share of current)” value [2] was 13.0 ± 0.7 % ^1. For the same molecule, the “Af + As + C (total amplitude)” value [2] was 3747 ± 215 pA ^6, the “As (slow amplitude, share of current)” value [2] was 56.3 ± 2.3 % ^3 and the “C (plateau, share of current)” value [2] was 30.5 ± 2.8 % ^5. For the same molecule, the Hill coefficient [2] was 1.60 ± 0.05, the “Tf (fast decay time constant)” value [2] was 444 ± 22 (msec) ^2 and the “Ts (slow decay time constant)” value [2] was 5495 ± 496 (msec) ^4. The decay time constant (hα3α5β4) was 563 ms, the decay time constant (hα3β4; probed with 300 μM ACh) was 495 ms and the “Af (fast amplitude, share of current)” value [3] was 50.5 ± 2.1%. The “Af + As + C (total amplitude)” value [3] was 1166 ± 77 pA, the “Af, fast” value [3] was −1171 pA and the “As (slow amplitude, share of current)” value [3] was 36.2 ± 1.7%. For the same molecule, the “As, slow” value [3] was −472 pA, the “C (plateau, share of current)” value [3] was 13.2 ± 1.0% and the EC50 [3] was 169 ± 25.2 µM. For the same molecule, the Hill coefficient [3] was 0.67 ± 0.04, the “Tf, fast” value [3] was 115 ms and the “Ts, slow” value [3] was 1477 ms. The plateau [3] was −140 pA.
Molecule `C[N+]1(C)CCN(c2ccccc2)CC1.[I-]` [DMPP, 1,1-dimethyl-4-phenylpiperazinium iodide] has an EC50 [1] of 23 ± 1.17 µM, a Hill coefficient [1] of 1.79 ± 0.08 and an EC50 ([1]; read-out: fictitious EC50) of 39.2 µM. It also gave a Hill coefficient [2] of 1.91 ± 0.06, an EC50 ([2]; EC50) of 19 ± 0.76 µM and an EC50 ([2]; fictitious EC50) of 16.1 µM. For the same molecule, the EC50 [3] was 11 ± 1.79 µM and the Hill coefficient [3] was 1.21 ± 0.12.
In the case of `Clc1ccc(C2CC3CCC2N3)cn1` (racemic) [[^3H]-epibatidine, [5,6.bicycloheptyl-^3H](+/−)epibatidine], the “Bmax of [3H]-epibatidine binding” value ([4]; averaged from 4 experiments, P18 WT SCG membranes) is given as 345.8 ± 25.6 fmol/mg protein, the “Bmax of [3H]-epibatidine binding” value ([4]; single experiment shown in Fig. 1A) is given as 371.2 ± 13.5 fmol/mg protein and the Kd [5] is given as 0.000137 µM.
In the case of `COc1cc(OC)c(NC(=O)Nc2cc(C)on2)cc1Cl` [PNU-120596], the “choline-induced currents with 10 μM PNU-120596 versus without” value (α7 nAChRs [6]) is reported as “significantly larger”, the “peak currents in response to 300 μM ACh in the presence of 10 μM PNU-120596” value (“peak currents in response to 300 μM ACh” below) (α7 nAChRs [7]; n = 14) is reported as “somewhat enhanced” and the “choline-induced currents with 10 μM PNU-120596 versus without” value (α7 nAChRs [8]) is reported as “significantly larger”. For the same molecule, the “peak currents in response to 300 μM ACh” value (α7 nAChRs [9]; n = 13) was “somewhat reduced”, the “choline-induced currents with 10 μM PNU-120596 versus without” value [10] was “not significantly different” and the “peak currents in response to 300 μM ACh” value ([10]; n = 26) was “somewhat enhanced”. For the same molecule, the “Peak currents in response to 10 mM choline in the presence of PNU-120596” value (α7 receptors) was 1688 ± 204 pA/pF.
With `C[N+](C)(C)CCO` [choline] the “currents induced by choline” value (α7 nAChRs [7]) was “slowly decaying currents of considerable amplitude”, the “currents induced by choline” value (α7 nAChRs [8]) was “negligible currents” and the “Peak currents in response to 10 mM choline” value (α7 receptors) was 40.4 ± 3.8 pA/pF.
For `CCN1C[C@]2(COC(=O)c3ccccc3N3C(=O)C[C@H](C)C3=O)CC[C@H](OC)[C@@]34[C@@H]5C[C@H]6[C@H](OC)[C@@H]5[C@](O)(C[C@@H]6OC)[C@@](O)([C@@H](OC)[C@H]23)[C@@H]14` [MLA, methyllycaconitine], the “effect of MLA on peak currents in response to 500 μM ACh” value (α7 nAChRs [7]) was “unaffected” and the “effect of MLA on peak currents in response to 500 μM ACh” value (α7 nAChRs [9]) was “unaffected”.
In the case of `O=c1cccc2n1C[C@@H]1CNC[C@H]2C1` [Cytisine, cytisine], the EC50 [1] is reported as 37.7 ± 2.43 µM, the Hill coefficient [1] is reported as 1.10 ± 0.02 and the “low-concentration potency ratio cytisine/DMPP” value [1] is reported as 0.76 ± 0.04 and 0.76. The “potency ratio cytisine/DMPP (low concentration)” value [1] was 0.67, the EC50 ([1]; read-out: fictitious EC50) was 26.2 µM and the “potency ratio cytisine/DMPP” value (human α3β4 receptors) was 4. For the same molecule, the Hill coefficient [2] was 1.44 ± 0.06, the “low-concentration potency ratio cytisine/DMPP” value [2] was 1.23 and the “potency ratio cytisine/DMPP (low concentration)” value [2] was 1.34. The EC50 ([2]; EC50) was 34.5 ± 2.26 µM, the EC50 ([2]; fictitious EC50) was 21.7 µM and the “potency ratio cytisine/DMPP” value (hα3β4) was 1.29. For the same molecule, the “potency ratio cytisine/DMPP” value (rα3β4 receptors) was 1.47.
